# Patent publication US11033524B2, “Methods and compositions for treating disorders associated with cortico-hippocampal hyperactivity” (RAMOT AT TEL-AVIV UNIVERSITY LTD., priority 2016, dated 2021)
# Entries after “also recorded” stand apart in the source; their conditions may differ.
# Tests used:
# hippocampal cultures [1] = assay: firing rate homeostasis: baclofen perturbation in MEA cultures; type: cell-based
# Experimental: The stable reduction in MFR induced by teriflunomide could have been the result of either impairment of homeostatic compensation mechanisms, or a change in a firing set-point value. A perturbation of firing rate in vivo results in re-normalization to its set-point level 2 days following perturbation through homeostatic mechanisms (Hengen et al., 2013). […] In order to determine the role DHODH inhibition in homeostatic process, we added 10 μM baclofen following 12 hr incubation with teriflunomide (FIG. 7).
# hippocampal cultures [2] = settings: returns to baseline level after 2 days (Slomowitz et al., 2015); cited from earlier work
# hippocampus = settings: low-dose, MCI patients (Bakker et al., 2012); cited from earlier work
# AD mouse models = AD mouse models (Sanchez et al., 2012); cited from earlier work
# [3] = test system: cultured hippocampal neurons; assay: multi-electrode array (MEA) recording of spiking activity / mean firing rate; type: cell-based; settings: for effect of teriflunomide on MFR in DHODH knockdown cultures: 50 μM teriflunomide in shDHODH-infected cultures
# From the text: In order to test how DHODH targeting affects neuronal activity, we examined the effect of the DHODH inhibitor teriflunomide on cultured hippocampal neurons grown on a multi-electrode chip (MEA) that allows a long-term monitoring of spiking activity from many neurons simultaneously (FIGS. 1A-1C).
# In order to test the specificity of teriflunomide effect on firing rate, we used a lentiviral-based shRNA delivery system (shDHODH; TRCN0000294665, Sigma Aldrich) to knockdown DHODH expression in hippocampal cultures.
# In order to test whether the change in MFR resulting from DHODH inhibition is induced by the reduction of available uridine (a precursor of pyrimidines) or results from a change in the mitochondrial function, we co-applied 100 μM uridine mono-phosphate with teriflunomide in MEA recordings.
# hippocampal neurons [4] = assay: intrinsic excitability: action potentials evoked by somatic current injections (F-I curves); type: cell-based; settings: teriflunomide incubation
# Experimental: Modulation of intrinsic excitability is an important facet of neuronal adaptation. In this experiment we elicited action potentials (APs) in response to increasing somatic current injections ranging from 0 to +500 pA (F-I curves) in the presence of postsynaptic receptor blockers (FIGS. 3A-3B). As found, teriflunomide induced a reduction in the maximal firing frequency from 31.4±2.29 Hz to 17.2±3.34 after 4 hr of incubation, and to 16.25±3.06 Hz after 2 days of incubation (FIGS. 3B-3C). Input resistance was not affected by teriflunomide application (FIGS. 3D-3E).
# hippocampal neurons [5] = assay: inhibition-excitation (I/E) ratio from sEPSCs and sIPSCs (integrated conductances GE, GI); type: cell-based
# From the text: The inhibition-excitation (I/E) ratio constitutes an important factor in firing rate homeostasis, and in pathology of epilepsy. To assess the effects of DHODH inhibition on the I/E ratio, the spontaneous excitatory and inhibitory postsynaptic currents (sEPSCs, sIPSCs, respectively) were isolated at the same cell based on the reversal potentials of α-amino-3-hydroxy-5-methyl-4-isoxazolepropionic acid receptor (AMPAR)-mediated excitatory and GABAAR-mediated inhibitory currents, and the integrated excitatory (FIG. 4A) and inhibitory conductance's (GE, GI, respectively) were calculated (FIGS. 4B-4D).
# hippocampal neurons [6] = assay: mEPSC recording (excitatory quantal events); type: cell-based
# Experimental: In this experiment we tested whether DHODH inhibition affects excitatory quantal events, by recording mEPSCs from hippocampal neurons under control conditions and 2 days following teriflunomide application (FIG. 5). As found, chronic teriflunomide incubation triggered a significant decrease of ˜26% in mEPSC amplitude (FIGS. 5A-5B).
# [7] = test system: pilocarpine-induced seizures; assay: pilocarpine model of TLE, behavioral seizure duration; type: in vivo; settings: 15 mg/kg IP daily for 3 days, pilocarpine 330 mg/kg IP, C57 male mice, p=0.0157
# From the text: In order to determine the potential therapeutic benefit of DHODH inhibition for epilepsy treatment, we used the pilocarpine model of TLE, which is one of the most common mouse models that recapitulates many aspects of the human pathology. The pilocarpine model of TLE appears to be highly isomorphic with the human disease including induction of acute status epilepticus, and latent period followed by the appearance of spontaneous recurrent seizures, as well as the occurrence of widespread lesions in the CNS (Curia et al., 2008). These features make it highly suitable for testing the efficacy of antiepileptic drugs (Leite et al., 2002). We performed intraperitoneal (IP) daily injections of teriflunomide (15 mg/kg) or vehicle for 3 days, in 6-week-old male mice of C57 background. On the third day, mice were injected subcutaneously (SC) with 2 mg/kg scopolamine to prevent peripheral effects, and 30 min later with 330 mg/kg pilocarpine IP. […] Because seizure duration correlates with hippocampal pathology in the pilocarpine model (Mazzuferi et al., 2012), these in vivo results emphasize the potential of DHODH inhibition as a therapeutic approach in the most common form of epilepsy.
# [8] = test system: CA3-CA1 synaptic transmission; assay: fEPSP recording in acute hippocampal slices
# From the text: Having established an essential role of DHODH activity in regulating MFR and E/I balance in hippocampal cultures, we asked whether acute DHODH inhibition modulates basal synaptic transmission in a more intact preparation—acute hippocampal slices. We evoked electrical stimulation in CA3 axons, comprising the Schaffer Collateral (SC) pathway of the hippocampus, and recorded the extracellular field excitatory postsynaptic potentials (fEPSP) in the stratum radiatum. We estimated the effect of teriflunomide (50 μM) on basal CA3-CA1 synaptic transmission evoked by low frequency stimulation of 0.1 Hz.
# Next, we examined how DHODH inhibition affects short-term synaptic plasticity evoked by high-frequency spike bursts. This type of plasticity plays an important role in working memory function.
# [9] = test system: CA3-CA1 hippocampal connections; assay: in vivo fEPSP recording after ICV injection; settings: ICV 100 mM/1 μl daily for 3 days, bursts of 3 stimuli at 50 Hz, anesthetized mice
# Experimental: Finally, we used intracerebroventricular (ICV) injection of teriflunomide to test its effect on hippocampal synaptic plasticity in vivo. For this, we injected teriflunomide (100 mM/1 μl daily) for 3 consecutive days and then performed electrophysiological fEPSP recording in vivo in anesthetized (2% isoflurane) mice. The recording electrodes were placed in the CA1 stratum radiatum, while the stimulating electrode was paced at the Schaffer Collateral fibers. We examined how inhibition of DHODH in the brain affects short-term synaptic plasticity in the hippocampus evoked by high-frequency spike bursts.
structure (smiles),measurement,setting,value
NCC(CC(=O)O)c1ccc(Cl)cc1 (stereo not drawn) [baclofen],MFR acutely after baclofen,hippocampal cultures [1]; 10 μM baclofen added in the presence of teriflunomide,0.3678±0.08 Hz
same,MFR stabilized over a 2-day period after baclofen,"hippocampal cultures [1]; 10 μM baclofen in the presence of teriflunomide, 48 h",2.00±0.35 Hz
same,firing rate after baclofen alone,hippocampal cultures [2],profound inhibition
CC[C@@H](C(N)=O)N1CCCC1=O [levetiracetam],memory,hippocampus,improvement
same,metabolic hyperactivity in the hippocampus,hippocampus,reduces
same,brain hyperactivity,AD mouse models,reduces
same,cognitive impairments,AD mouse models,improves
"C/C(O)=C(\C#N)C(=O)Nc1ccc(C(F)(F)F)cc1 [teriflunomide, (2Z)-2-cyano-3-hydroxy-N-[4-(trifluoromethyl)phenyl]but-2-enamide]",effect of teriflunomide on MFR in DHODH knockdown cultures,[3],did not produce long-term changes in MFR
same,effect of teriflunomide on MFR in DHODH knockdown cultures,[3]; listed as Teriflunomide,did not have a significant effect
same,neuronal mean firing rate (MFR),"[3]; 50 μM teriflunomide, after 4 h of application, baseline 3.95±0.27 Hz",1.58±0.17 Hz
same,stability of the lower MFR induced by teriflunomide,"[3]; 50 μM teriflunomide, time following application",stable for 14 hr
same,reduction in MFR with co-applied uridine,"[3]; 100 μM uridine mono-phosphate co-applied with 50 μM teriflunomide, timescale of 2 days",does not occlude the reduction in maximum firing rate (MFR); also recorded: did not occlude the effect of teriflunomide on MFR; also recorded: did not occlude the reduction in MFR
same,input resistance (Rin),hippocampal neurons [4],no change; also recorded: not affected
same,I/E ratio (GI/GE per neuron),hippocampal neurons [5]; 4 hr to 2 days of teriflunomide incubation,elevated and remained high; also recorded: significant and stable increase
same,average integrated excitatory conductance (GE),hippocampal neurons [5]; 2 days of teriflunomide incubation,remained lower for 2 days; also recorded: stable during 2 days of incubation
same,average integrated excitatory conductance (GE),hippocampal neurons [5]; after 4 hr of teriflunomide incubation,dramatic decrease
same,integrated inhibitory conductance (GI),hippocampal neurons [5]; after either 4 hr or 2 days of teriflunomide incubation,no significant change; also recorded: no significant reduction
same,decrease in mEPSC amplitude,hippocampal neurons [6]; 2 days teriflunomide incubation vs control,26%
same,mEPSC frequency,"hippocampal neurons [6]; 2 days teriflunomide incubation, p=0.08",not significantly affected; also recorded: did not reach statistical significance
same,"MFR, new lower baseline value","hippocampal cultures [1]; 12 hr (overnight) incubation with 50 μM teriflunomide, original baseline 4.30±0.0.44 Hz",2.50±0.38 Hz
same,behavioral seizure duration,[7],significantly reduces
same,fEPSP amplitude (basal CA3-CA1 transmission),"[8]; 50 μM teriflunomide, 0.1 Hz stimulation",gradual reduction
same,short-term synaptic facilitation (relative fEPSP amplitude within the burst),"[8]; bursts of 5 stimuli at 50 Hz, 30 min after teriflunomide",profoundly increased
same,short-term synaptic facilitation in vivo,[9],increase
